One series can be described thus: Volatility. It is filed as physicochemical.
In a further series the test system is Aedes mosquito. Kind of series: Protection against mosquito biting and toxicity to mosquitoes. It is filed as in vivo.
Series [1] concerns IsTOctR (Ixodes octopamine receptor), cloned α-like OctR. In words: OctR activation: change in intracellular calcium (CALCIUM 6QR dye, FlexStation 3) in stably transfected mammalian cells. It is filed as cell-based, Ixodes scapularis. As to conditions: agonist, read-out: IsTOctR (Ixodes octopamine receptor) EC50. An excerpt: (§1) Functional expression of cloned arthropod OctRs and human α2-ARs: The cDNAs for α-like OctRs from different arthropod species (e.g., Anopheles gambiae, Aedes aegypti, Periplaneta americana, Drosophila melanogaster, Ixodes scapularis, Balanus improvises) and for α2-AR subtypes from humans were individually subcloned into mammalian expression vectors. These plasmids, which harbor a resistance gene for the selection drug G418 and the cDNA sequence for the receptor of interest, were individually transfected into mammalian cells using a calcium phosphate precipitation method. G418 selection was then employed to generated stable clonal cell lines. Utilizing rapid filtration radioligand binding techniques, the cell surface density of receptor expression of the individual clonal cell lines was determined at equilibrium and those with similar high levels of expression were selected for further experiments. Briefly, binding conditions were 50 mM Tris binding buffer pH 7.4 at 25° C. and an ice-cold wash buffer 10 mM Tris-HCl, pH 7.4). The radioligand was [3H]rauwolscine and non-specific binding was determined in the presence of 10 μM atipamezole. Following the addition of membranes prepared from the clonal cell lines, samples were mixed and allowed 2 hr. to reach equilibrium before rapid filtration and washing through 0.3% PEI-treated GF/C filters. The radioactivity remaining on the filters was quantified by scintillation counting. Receptor density (Bmax) was back calculated knowing the specific activity of the radioligand and applying the equation for a square hyperbola model: Bmax=(Y·(KD+X))/X, where Y is [specifically bound radioligand] and X=[radio ligand concentration]. The affinity (KD) for the radioligand for each receptor was determined in separate saturation isotherm binding experiments using the same binding conditions as describe above.
(§2) Measurement of OctR activation by measuring changes in intracellular calcium: Activation of arthropod α-like OctRs increases intracellular calcium via a Gq-coupling mechanism. This involves activation of phospholipase C leading to an increase in intracellular inositol triphosphate (IP3) which then activates IP3-gated calcium channels in the endoplasmic reticulum causing a transient rise in intracellular calcium. These changes in intracellular calcium upon OctR activation were measured by loading cells with intracellular calcium sensitive dye CALCIUM 6QR and reading the change in calcium-induced fluorescent signal over time on a FlexStation 3 microplate reader.

The subject of series [2] is AeOctR (Aedes octopamine receptor), cloned α-like OctR. The description is as above. It is filed as cell-based, Aedes aegypti. Conditions: agonist.
Text: as §1, §2

A further series has as its system Balanus OctR (BiOctR). In words: OctR activation, change in intracellular calcium. It is filed as cell-based, Balanus improvises. As to conditions: Balanus barnacle OctR over Homo sapien α2-AR subtypes.
Text: as §1, with “Briefly, binding conditions were 50 mM Tris binding buffer pH 7.4 at 25° C. and an ice-cold wash buffer 10 mM Tris-HCl, pH 7.4).” left out, “Following the addition of membranes prepared from the clonal cell lines, samples were mixed and allowed 2 hr. to reach equilibrium before rapid filtration and washing through 0.3% PEI-treated GF/C filters.” left out, “The affinity (KD) for the radioligand for each receptor was determined in separate saturation isotherm binding experiments using the same binding conditions as describe above.” left out
For orientation: Calcium assays in cells follow changes in intracellular calcium, usually with a dye or a luminescent sensor.

Series [3] deals with T1, Hsα2C-AR (human α2C adrenergic receptor) (Homo sapiens, UniProt P18825).
T1 construct: expressed in transfected cells
T1 sequence (P18825 1-462): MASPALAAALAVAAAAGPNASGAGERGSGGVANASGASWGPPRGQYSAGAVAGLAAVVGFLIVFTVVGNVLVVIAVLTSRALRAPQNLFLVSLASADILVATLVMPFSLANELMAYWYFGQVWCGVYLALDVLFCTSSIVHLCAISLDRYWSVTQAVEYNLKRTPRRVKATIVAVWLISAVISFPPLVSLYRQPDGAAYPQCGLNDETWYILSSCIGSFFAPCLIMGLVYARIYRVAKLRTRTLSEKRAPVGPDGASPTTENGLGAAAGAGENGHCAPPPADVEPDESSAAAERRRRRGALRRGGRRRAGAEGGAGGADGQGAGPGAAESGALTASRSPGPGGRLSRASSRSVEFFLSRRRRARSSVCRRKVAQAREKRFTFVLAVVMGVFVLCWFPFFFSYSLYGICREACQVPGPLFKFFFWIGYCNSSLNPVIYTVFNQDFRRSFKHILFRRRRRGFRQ
Kind of series: [3H]rauwolscine competition radioligand binding, membranes of clonal mammalian cell lines. As to conditions: 50 mM Tris pH 7.4, 25° C., 2 hr, Cheng-Prusoff.
Text: as §1
(§3) Measurement of compound affinities by competition radioligand binding: Affinities (Ki) for compounds were determined by [3H]rauwolscine competition binding using the same binding conditions as described above. The Ki values were calculated from IC50 values using the Cheng-Prusoff equation.

The target of series [4] is T2, Hsα2A-AR (human α2A adrenergic receptor) (Homo sapiens, UniProt P08913).
T2 construct: expressed in transfected cells; membranes
T2 sequence (P08913 whole entry): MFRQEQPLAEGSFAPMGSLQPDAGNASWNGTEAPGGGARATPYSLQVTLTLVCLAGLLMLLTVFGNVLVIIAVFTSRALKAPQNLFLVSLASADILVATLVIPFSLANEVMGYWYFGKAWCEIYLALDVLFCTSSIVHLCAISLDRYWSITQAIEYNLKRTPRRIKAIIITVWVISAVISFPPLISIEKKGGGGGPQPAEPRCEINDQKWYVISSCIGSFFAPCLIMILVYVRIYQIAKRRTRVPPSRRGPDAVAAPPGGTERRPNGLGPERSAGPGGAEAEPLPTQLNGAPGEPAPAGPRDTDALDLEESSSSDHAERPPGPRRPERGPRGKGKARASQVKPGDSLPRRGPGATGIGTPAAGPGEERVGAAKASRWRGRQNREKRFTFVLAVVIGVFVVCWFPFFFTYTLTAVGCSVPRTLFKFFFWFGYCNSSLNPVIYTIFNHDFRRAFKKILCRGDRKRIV
Described as above. As to conditions: 50 mM Tris pH 7.4, 25° C., 2 hr, Cheng-Prusoff.
Text: as §1, §3

From patent US10766866B2, “Deterrents for arthropods and marine organisms” (priority 2017, dated 2020) come the findings set out here.

Each structure is given as a SMILES string.

As a reminder, the EC50 is the concentration that produces a half-maximal response. One may read the Ki as the equilibrium dissociation constant of an inhibitor or competing ligand from its target. For the compound `C=C(c1cnc[nH]1)c1cccc(C)c1C` [AZ0027], the volatility entry in the series “Volatility” is on record as “low volatility”. Besides, the “protection against mosquito biting” value in the series on Aedes mosquito (Aedes mosquito) is recorded as “protects against Aedes mosquito biting”. For the same compound, the toxicity to mosquitoes entry with Aedes mosquito (DEET: at the lowest concentration that produces maximal protection against biting (LC50)) was “non-toxic to mosquitoes”. Also, the “potency relative to DEET” value in the series on Aedes mosquito (protection against mosquito biting) is “over 500 fold”. The figures for the EC50 in series [1] and in series [2] were 0.00051 ± 0.00028 µM and 0.012 ± 0.0032 µM, respectively. Moreover, the “selectivity Ki(Hsα2-AR)/EC50(OctR)” value in the series on Balanus OctR (BiOctR) was “highly selective”. For the same compound, the Ki in series [3] came out at 0.231 ± 0.046 µM; in series [4], 0.109 ± 0.016 µM.
